From patent US20170128489A1 (priority 2014, published 2017)

NC(=O)CN(CC(N)=O)C1CCCCCCC1 [CO-IDAm, Cyclooctylimidodiacetamide]
melting point: 152 to 154 °C
